From patent publication US20260327263A1, “Anti-Bacterial Peptides” (priority 2023, published 2026)
≈ marks a conversion by molar mass, not a printed value. Where no end group is shown, it is not given here.

Key:
[1] = tested on: fibroblasts (HFF-1); test: Cell proliferation assay, HFF-1 fibroblasts; format: cell-based; conditions: 24 h; up to highest tested concentrations (peptide); 3% (H2O2)
[2] = tested on: human keratinocytes (HaCaT); test: Cell proliferation assay, HaCaT keratinocytes; format: cell-based; conditions: 24 h; up to highest tested concentrations (peptide); 3% (H2O2)
Protocol: (§1) Wound closure was compared with the untreated samples (circle, red highlight). For improved clarity, error bars have been omitted from this representation. […] Each value is the mean±SD (n=3). Statistical significance was assessed using ANOVA for multiple comparisons (Dunnett's multiple comparisons test). **** p<0.0001, *** p<0.001, ** p<0.01, *p<0.05, ns denotes nonsignificance, p >0.05.
CyQUANT™ Direct Cell Proliferation Assay (ThermoFisher Scientific, Catalogue) was performed as per manufacturer's instructions to determine the safety of the peptides to human keratinocytes. […] The fluorescence intensity and number of stained cells were determined using the LionHeart FX Automated Microscope (BioTek, VT, USA).

[3] = tested on: Pseudomonas aeruginosa PA BAA-2110; test: Broth microdilution, PA BAA-2110 (lung infection in cystic fibrosis); format: cell-based, Pseudomonas aeruginosa (BAA-2110); conditions: Pseudomonas aeruginosa, BAA2110
Protocol: (§2) Bacteria strains involved in lung infection in cystic fibrosis patients (PA-BAA 2110) and ear-eye infections (PA-CRM 9027) are treated with exemplary variant peptides, such as E1AM2 and Q19L.
(§3) Examination of the potency of modified short peptides against PA and SA strains was performed by using the broth microdilution protocol from the Clinical and Laboratory Standards Institute (CLSI) guidelines (CLSI 2012) as described. Briefly, five freshly plated bacteria colonies were grown in cation adjusted MH2 broth (BD Biosciences) in a shaker incubator at 37° C., 220 RPM. Cells were grown to an optical density (OD600) of ~0.2 measured using a Microplate Spectrophotometer (Molecular Devices Spectra Max Plus). 100 μL of microbial culture containing ~5×10^5 CFU/mL of bacteria in the respective broths were introduced into each well containing 100 μL of peptides and incubated overnight at 37° C. Next, to check the bactericidal effects, 100 μL from each well was transferred and spread on sterile MH2 agar plates. The plates were incubated overnight at 37° C. and the number of colonies forming units (CFU) were calculated the following day. Readings of bacteria grown in media without any treatments were normalized to 100% as media control. For the mixed infection study, three freshly plated bacteria colonies each from PA, SA and ST plates were grown together in cation adjusted MH2 broth and proceeded as described above.

[4] = tested on: Pseudomonas aeruginosa (PA); test: Antimicrobial resistance evolution assay, PA; format: cell-based; conditions: serial passaging, 28 days; resistance = >4-fold MIC change
From the text: The development of antimicrobial resistance is defined by greater than a 4-fold change to their initial minimum inhibitory concentration (MIC) at day 1. Exemplary bacteria strains Pseudomonas aeruginosa (PA) and Staphylococcus aureus (SA) are subjected to continuous daily serial passaging over several days, with treatment of exemplary variant peptides E1AM2 (SEQ ID NO: 2) and Q19L (SEQ ID NO: […]) at subinhibitory concentrations. […] The treatments were discontinued when the MIC increased by more than four-fold from the initial MIC or when MIC reached >100 μM.
Briefly, sequential passaging of PA, and SA cells was done with sub-inhibitory concentrations of antibiotics or E1AM2 up to 4 weeks. The cells grown in those concentrations of antibiotics or peptides were diluted to A600 nm (OD600) of ~0.2 and serially passaged daily with the same concentrations at 37° C. with agitation at 24 h intervals.

[5] = tested on: Pseudomonas aeruginosa PA CRM-9027; test: Broth microdilution, PA CRM-9027 (ear-eye infections); format: cell-based, Pseudomonas aeruginosa (CRM-9027); conditions: Pseudomonas aeruginosa, PACRM9027
Protocol: as §2, §3

[6] = tested on: mixed bacterial infection (PA, SA and ST); test: Broth microdilution, mixed bacterial infection; format: cell-based
Protocol: Chronic wounds mostly present mixed infections where numerous pathogens colonize together.
as §3

[7] = tested on: Staphylococcus aureus (SA); test: Broth microdilution anti-bacterial assay (CLSI), Staphylococcus aureus; format: cell-based
Protocol: (§4) To evaluate their anti-bacterial potency, broth microdilution method as per the CLSI guidelines 1 was used. […] The anti-bacterial potency of the tested agents is quantified using minimum inhibitory concentration (MIC) and minimum bactericidal concentration (MBC). […] To obtain the MBC data, 1X, 2X and 4× MIC of the peptide variants were plated to obtain the number of viable colonies compared to the original inoculum.
(§5) Pseudomonas aeruginosa (ATCC 14213, PA), and methicillin resistant Staphylococcus aureus (BAA1717-USA 300, SA) were obtained from The American Type Culture Collection (ATCC).
as §3

[8] = tested on: Pseudomonas aeruginosa (PA); test: Broth microdilution anti-bacterial assay (CLSI), Pseudomonas aeruginosa; format: cell-based, Pseudomonas aeruginosa (ATCC 14213)
Protocol: as §4, §5, §3

[9] = tested on: Pseudomonas aeruginosa (PA); test: Time-kill assay, Pseudomonas aeruginosa; format: cell-based
Protocol: (§6) The bactericidal abilities of the variant peptides are not only effective, but also fast-acting. […] The killing kinetics are detailed in Table 11 below.
(§7) Pseudomonas aeruginosa (PA) and Staphylococcus aureus (SA) strains were grown as per CLSI guidelines. AMPs were added to the bacterial cultures at their 1X MBC concentrations. Upon treatment, the bacterial cultures were enumerated for viable counts immediately within 1 min, 5 min, 15 min, 30 min and 60 min post-treatments.

[10] = tested on: human keratinocytes; test: 2D scratch assay, keratinocyte migration; format: cell-based; conditions: 48 h; E1AM2 3.125-12.5 μM, Q19L 3.125-6.25 μM
Protocol: Wound healing is directly associated with the migration speed of keratinocytes. The migration speed of human keratinocytes in presence of E1AM2, V8L (SEQ ID NO: 19), and Q19L variants is tested in comparison with pexiganan (SEQ ID NO: 54). Migration speed of human keratinocytes assessed in a 2D scratch assay at D 0 and D 2 timepoints. Decrease in wound area over time was measured by applying an ImageJ plugin ‘Wound Healing Size Tool’ on bright-field images. The change in wound area over the course of 48 hours was used as a measure of the migration speed of keratinocytes. Each value is the mean±SD (n=3). The p-value was calculated using ANOVA for multiple comparisons (Dunnett's multiple comparisons test). **** p<0.0001. *** p<0.001. ** p <0.01. * p<0.05. […] Both peptides healed wound faster within their respective MIC and MBC concentrations. […] SEQ ID NO: 27=Q19L; SEQ ID NO: 2=E1AM2; SEQ ID NO: 19=V8L.
as §1
Wound areas of the human keratinocyte culture were assessed in presence of peptides in a 2D scratch assay at the 0 hour, and 48-hour time points by applying an ImageJ plugin, ‘Wound Healing Size Tool’ on brightfield images. Quantification of wound width was calculated by obtaining the averaged Euclidean distance between each paired pixel at the lateral wound edges. The change in wound area over the course of 48 hours was used as a measure of the migration speed of keratinocytes.
Using the inverted BioTek Lionheart LX Automated Microscope, brightfield images were obtained at 4× magnification to observe the wound area at timepoints 0 (before treatment) and 48 hours-post treatment. Microscopy settings were maintained as focus offset (781.3 μm), illumination (2), integration Time (21) with no gain. To cover the entire well, montage images of four rows by three columns were stitched together by enabling the “image stitching” function and images were saved in tiff-format.

[11] = tested on: Staphylococcus aureus (SA); test: Time-kill assay, Staphylococcus aureus; format: cell-based
Protocol: as §6, §7

[12] = tested on: bacteria; test: Comparison of wild-type peptide E1A to V8LQ19L (Table 14)
From the text: Active peptide sequences based on ENO3 exerting significant bactericidal antibiofilm properties, and relevant to chronic wound healing are previously disclosed. The previously disclosed antimicrobial peptides (AMPs) are longer (>22-residues) in length, which would be more costly in production.

[13] = at 1X MBC, * indicates killing within seconds

OO [H2O2, hydrogen peroxide, reference compound]
cytotoxicity to HFF-1 [1]: significant cytotoxicity
cytotoxicity to HaCaT [2]: significant cytotoxicity

CCN1CCN(C(=O)N[C@@H](C(=O)N[C@@H]2C(=O)N3[C@@H]2SC(C)(C)[C@@H]3C(=O)O)c2ccccc2)C(=O)C1=O [Piperacillin, (2S,5R,6R)-6-{[(2R)-2-[(4-ethyl-2,3-dioxo-piperazine-1-carbonyl)amino]-2-phenyl-acetyl]amino}-3,3-dimethyl-7-oxo-4-thia-1-azabicyclo[3.2.0]heptane-2-carboxylic acid]
MBC [3]: 25 µM (≈ 12.9 µg/mL)
MIC [3]: 12.5 µM (≈ 6.47 µg/mL)
development of antimicrobial resistance, PA [4]: developed resistance
MBC [5]: 6.25 µM (≈ 3.23 µg/mL)
MIC [5]: 6.25 µM (≈ 3.23 µg/mL)
MIC [6]: 25 µM (≈ 12.9 µg/mL)
MBC ([6]; mixed infection): 25 µM (≈ 12.9 µg/mL)
MBC ([7]; Staphylococcus aureus): 12.5 µM (≈ 6.47 µg/mL)
MIC ([7]; Staphylococcus aureus): 6.25 µM (≈ 3.23 µg/mL)
MBC ([8]; Pseudomonas aeruginosa): 50 µM (≈ 25.9 µg/mL)
MIC ([8]; Pseudomonas aeruginosa): 25 µM (≈ 12.9 µg/mL)

KKLLKKWLKLSKKALKLAQSL-NH2 [V8L]
time to kill PA (in words) ([9]; 1X MBC): within minutes
Time kill PA, >99% killing [9, 13]: 1* min
migration speed of keratinocytes [10]: maintained keratinocyte migration speed
time to kill SA (in words) ([11]; 1X MBC): within minutes
Time kill SA, >99% killing [11, 13]: >30 to 60 min
MIC ([7]; SA, overnight, 37° C., ≥99% inhibition): 3.125 µM
MBC ([7]; SA, ≥99% killing): 3.125 µM
anti-bacterial activity (in words) ([8]; PA and SA): reduction in the minimum inhibitory concentration (MIC) and minimum bactericidal concentration (MBC) values
MIC ([8]; PA, overnight, 37° C., ≥99% inhibition): 3.125 µM
MBC ([8]; PA, ≥99% killing): 3.125 µM

KVNQIGSVTESIQACKLAQSN [E1A, reference compound]
Cationicity [12]: Non-cationic (cannot disrupt
Mechanism of killing bacteria [12]: Unknown/non-membrane
Killing efficacy (in words) ([12]; >99% inhibition or killing, even at 500 μM): Does not achieve >99%
